In US10018630B2, “Cancer stem cell isolation” (CHUGAI SEIYAKU KABUSHIKI KAISHA, priority 2011, dated 2018):

How the values were obtained:
[1] = test system: Lgr5-negative colon CSCs; assay: Cell proliferation / chemosensitivity assay (Cell Counting Kit-8); assay type: cell-based, human; conditions: for proliferation and survival of Lgr5-negative colon CSCs: 10 μg/ml, three days; for resistance of Lgr5-negative CSCs (percentage of viable cells relative to non-treated control): PLR59 and PLR123, cultured three days at each concentration (FIG. 45)
Protocol: (§1) Tissues of xenograft were cut with a razor blade in order to prepare single cancer cell suspensions. After the suspensions were incubated at 37° C. for 3 hours in DPBS containing collagenase/dispase (Roche) and DNaseI (Roche), the suspensions were filtered through 40-μm Cell Strainers (BD Biosciences). The cells were suspended in the lysis buffer (BD Biosciences) to remove erythrocytes. The prepared xenograft-derived cells were cultured under 5% CO2 atmosphere at 37° C. in DMEM/F12 (Invitrogen) containing N-2 Supplement (Invitrogen), 20 ng/ml human EGF (Invitrogen), 10 ng/ml human basic fibroblast growth factor (Sigma), 4 μg/ml heparin (Sigma), 4 mg/ml BSA (Invitrogen), 20 μg/ml human insulin zinc solution (Invitrogen), and 2.9 mg/ml glucose (Sigma) (Todaro M, et al. (2007) Cell Stem Cell 1: 389-402). Adherent and floating CSCs were cultured using conventional polystyrene-treated cell culture flasks (BD Biosciences) and Ultra-low attachment cell culture flasks (Corning), respectively.
(§2) Floating and adherent cells were plated at about 100 and 1×10^4 cells/well in 96-well plates, respectively. On days 0 and 3, viable cell counts were determined by the Cell Counting Kit-8 Assay (Doujindo) according to the manufacturer's protocol. Average absorbance on day 0 was taken as 100%. For chemosensitivity assay, floating and adherent cells were plated at about 100 and 1×10^4 cells/well in 96-well plates, respectively. […] After three days of culture in the presence of the agents, the Cell Counting Kit-8 was added to the cells. The average absorbance of cells exposed to DMSO or medium alone was taken as 100%. All experiments were performed in triplicate.

[2] = test system: Lgr5-positive colon CSCs; assay: as above; assay type: cell-based, human
Protocol: as §1, §2

[3] = test system: tumors derived from LGR5-positive CSCs (PLR123); assay: Irinotecan treatment of NOG mice bearing tumors derived from Lgr5-positive CSCs; assay type: in vivo
Protocol: Mice bearing tumors derived from LGR5-positive CSCs (PLR123) were treated with irinotecan, and their tumors were observed. Irinotecan or vehicle was administered to mice at days 12, 15, and 18 after tumor grafting. Scale bar represents 25 μm.
FIG. 53 Irinotecan was administered at a dose of 120 mg/kg/day to NOG mice at days 12, 15, and 18 after grafting tumors derived from LGR5-positive CSCs (PLR123). This figure is a graph showing tumor volumes in control mice administered with vehicle (closed diamond) and mice administered with irinotecan (closed square or triangle). Each value represents mean±standard deviation.
FIG. 54 is a graph showing the numbers of Lgr5-positive and HLA-DMA-positive cells in xenograft tumor tissues. Thin sections of tissues were treated with Lgr5 antibody and HLA-DMA antibody, and then the numbers of Lgr5-positive and HLA-DMA-positive cells were counted. Values represent the total numbers of cells counted for respective groups (n=3).
To probe the possibility of in vivo transition to a growth inhibitor-resistant state, irinotecan was administered at the maximum tolerated dose (MTD) (120 mg/kg) into the peritoneal cavities of NOG mice bearing tumors derived from Lgr5-positive CSCs. […] By contrast, in vehicle-treated control mice, about one third of cancer cells were positive for Lgr5 in both ductal and budding areas (FIG. 52). Both Lgr5-positive cells and HLA-DMA-positive and Lgr5-negative cells were positive for EREG, and were identified to be CSCs (FIG. 52). After irinotecan treatment, Lgr5-positive cells appeared again (FIG. 52). Furthermore, xenografts were excised from mice on day 21 after transplantation of irinotecan-treated or non-treated Lgr5-positive cells. Sections from the xenografts were double-stained with an anti-Ki67 antibody and an anti-Lgr5 antibody or an anti-HLA-DMA antibody. The result of double staining for Ki67 and Lgr5 or HLA-DMA, which is a marker for Lgr5-negative cells, also confirmed a correlation between Lgr5 expression and Ki67 staining in xenografts, similarly to the observation using in vitro cultured cells. Specifically, the Lgr5-positive cells were positive for Ki67, while the Lgr5-negative/HLA-DMA-positive cells were negative for Ki67 (FIG. 65).

[4] = test system: Lgr5-positive colon CSCs; assay: Transition of Lgr5-positive colon CSCs to the Lgr5-negative state after drug exposure (flow cytometry, immunostaining, qPCR); assay type: cell-based, human; conditions: for Lgr5 state of drug-resistant cells: three-day exposure of Lgr5-positive colon CSCs; for Lgr5 expression by IHC (antibody 2L36): adherent condition, 24 hours with drug, then 48 hours without drug
Protocol: Colon CSCs were incubated with mouse anti-human Lgr5 antibody (2T15E-2) and then with […] rat anti-mouse IgG antibody (Invitrogen) to stain Lgr5. The aldehyde dehydrogenase activity was measured using the AldeFluor Kit (Stemcell Technologies). Mouse cells were discriminated from human colon CSCs by staining with anti-mouse MHC class I antibody (Abcam), and PE- or APC-labeled goat […] antibody (BioLegend). Dead cells were also removed using the 7-AAD Viability Dye (Beckman Coulter).
Total RNAs were isolated using the RNeasy Mini Kit including DNAase treatment (Qiagen). cDNAs were synthesized using the First-Strand cDNA Synthesis Kit (SABiosciences). Quantitative real-time PCR (QRT-PCR) analysis was performed with the SYBR Green/Rox qPCR (SABiosciences) using the Mx3005P Real-Time PCR System (Stratagene). The fold induction value was calculated according to the 2-ΔΔCt method. GAPDH and ACTB were used as a reference. All experiments were performed in triplicate.
For immunofluorescent cytochemistry, cells were fixed with 4% paraformaldehyde and methanol, and incubated with a mouse anti-human E-cadherin antibody (Abcam), rabbit anti-human Snail antibody (Abcam), or rabbit anti-human β-catenin antibody (Sigma)). Then, the cells were visualized using the AlexaFluor 488-labeled goat anti-mouse IgG antibody or goat anti-rabbit IgG antibody. For immunofluorescent cytochemistry, the fixed cells and thin sections derived from paraffin blocks of xenograft tumors were incubated with a mouse anti-human Lgr5 antibody (2U2E-2) or rabbit anti-human Snail antibody (Abcam), rabbit anti-human HLA-DMA antibody (Sigma), rabbit anti-TMEM173 antibody (Abcam), rabbit anti-human ZMAT3 antibody (Abcam), or rabbit anti-human GPR110 antibody (Abcam). After incubation with the primary antibody, Lgr5 protein was detected with a goat anti-mouse antibody conjugated with polymer-HRP (DAKO) and visualized with AlexaFluor 488-labeled tyramide (Invitrogen), while Snail, HLA-DMA, and TMEM173 proteins were detected with a biotinylated goat anti-rabbit antibody (VECTOR) and visualized with AlexaFluor 568-labeled streptavidin (Invitrogen). These cells and samples were also stained with DAPI (Invitrogen). ZMAT3 and GPR110 proteins were detected with a goat anti-rabbit antibody conjugated with polymer HRP (DAKO) and visualized with diaminobenzidine. The cells and samples were stained with Mayer's hematoxylin (Muto Pure Chemicals Co.).
In addition, the present inventors carried out examinations to assess whether Lgr5-negative colon CSCs undergo a transition into an Lgr5-positive state. […] On the other hand, when Lgr5-positive adherent colon CSCs were cultured in an ultra low adherent plate, the present inventors observed that some of the cells halted their growth and formed a spheroid-like structure and that the Lgr5 mRNA level was very low (FIGS. 12 and 33). The transition from the Lgr5-positive to Lgr5-negative state (and the reverse) was also confirmed by observations using a single cell in culture. […] When single Lgr5-negative cells prepared via irinotecan treatment were individually cultured in a multi-well plate in the absence of irinotecan, 19 to 43% of the cells underwent a transition into the Lgr5-positive state within four days (FIG. 47 and Table 5).
Lgr5-positive cells were incubated under an adherent condition in the presence of 5-FU or oxaliplatin for 24 hours, and then cultured in the absence of the drug for 48 hours. The cells were analyzed for the expression of Lgr5 by IHC using an anti-Lgr5 antibody (antibody 2L36). […] Next, Lgr5-negative cells sorted using MoFlo XDP cell sorter and treated with 5-FU or oxaliplatin were cultured for four days in the absence of the drug. The cells were analyzed for Lgr5 expression.

[5] = 120 mg/kg into the peritoneal cavity

With `CCc1c2c(nc3ccc(OC(=O)N4CCC(N5CCCCC5)CC4)cc13)-c1cc3c(c(=O)n1C2)COC(=O)[C@]3(O)CC` [irinotecan] the “proliferation and survival of Lgr5-negative colon CSCs” value [1] was “did not affect the proliferation and survival”, the “resistance of Lgr5-negative CSCs (percentage of viable cells relative to non-treated control)” value [1] was “fully resistant” and the “proliferation of Lgr5-positive colon CSCs” value ([2]; 10 μg/ml, three days) was “significantly inhibited the proliferation”. The tumor growth ([3]; 120 mg/kg (MTD) into the peritoneal cavity, days 12, 15 and 18 after grafting) was “inhibited almost completely”, the “Lgr5-positive cells in tumor” value [3, 5] was “dramatic decrease” and the “ductal structures of tumor” value [3, 5] was “collapsed extensively”. The “number of Lgr5-negative and HLA-DMA-positive cells in tumor” value [3, 5] was “increased significantly”, the “level of Lgr5 mRNA (quantitative real-time PCR)” value ([4]; Lgr-negative cells after irinotecan treatment (FIG. 43)) was “almost undetectable” and the “fluorescence representing Lgr5 positivity” value ([4]; PLR123, before vs after irinotecan treatment (FIG. 42)) was “disappeared after the treatment”. The ALDH activity ([4]; after irinotecan treatment) was “reduced”, the “Lgr5 state of single Lgr5-positive cells cultured individually” value ([4]; multi-well plate, within three days after irinotecan treatment) was “underwent a transition into the Lgr5-negative state” and the “Lgr5 state of drug-resistant cells” value [4] was “negative for Lgr5”.

With `Cc1cc([N+](=O)[O-])ccc1NS(=O)(=O)c1cc(Cl)ccc1Cl` [FH535] the “proliferation of Lgr5-negative colon CSCs” value ([1]; 50 μM, three days of culture) was “had no effect on the proliferation” and the “proliferation of Lgr5-positive colon CSCs” value ([2]; 50 μM, three days of culture) was “significantly reduced the proliferation”.

In the case of `COc1cc(O)cc(O)c1C(=O)/C=C/c1ccccc1` [cardamonin], the viable cell count ([1]; 50 μM, three days of culture, Lgr5-negative colon CSCs, relative to DMSO alone) is reported as “about 50%” and the viable cell count ([2]; 50 μM, three days of culture, Lgr5-positive colon CSCs, relative to DMSO alone) is reported as 70%.

With `O=C1[O][Pt]2([NH][C@@H]3CCCC[C@H]3[NH]2)[O]C1=O` [oxaliplatin] the “Lgr5 expression by IHC (antibody 2L36)” value [4] was “most of the Lgr5-positive cells underwent transition into the Lgr5-negative state”.

For `O=c1[nH]cc(F)c(=O)[nH]1` [5-FU, fluorouracil], the “proliferation and survival of Lgr5-negative colon CSCs” value [1] was “did not affect the proliferation and survival”, the “resistance of Lgr5-negative CSCs (percentage of viable cells relative to non-treated control)” value [1] was “fully resistant” and the “proliferation of Lgr5-positive colon CSCs” value ([2]; 10 μg/ml, three days) was “significantly inhibited the proliferation”. For the same molecule, the “Lgr5 expression by IHC (antibody 2L36)” value [4] was “most of the Lgr5-positive cells underwent transition into the Lgr5-negative state” and the “Lgr5 state of drug-resistant cells” value [4] was “negative for Lgr5”.
